Values joined by “and” are separate entries in the source; they are usually repeats but may differ in a detail not shown here. Equal entries are not always repeated.
How the values were obtained:
[1] = biological target: T1, KLHDC2^SBD (Homo sapiens, UniProt Q9Y2U9); assay: ITC, binary binding of small molecule to KLHDC2^SBD
T1 sequence (Q9Y2U9 15-361): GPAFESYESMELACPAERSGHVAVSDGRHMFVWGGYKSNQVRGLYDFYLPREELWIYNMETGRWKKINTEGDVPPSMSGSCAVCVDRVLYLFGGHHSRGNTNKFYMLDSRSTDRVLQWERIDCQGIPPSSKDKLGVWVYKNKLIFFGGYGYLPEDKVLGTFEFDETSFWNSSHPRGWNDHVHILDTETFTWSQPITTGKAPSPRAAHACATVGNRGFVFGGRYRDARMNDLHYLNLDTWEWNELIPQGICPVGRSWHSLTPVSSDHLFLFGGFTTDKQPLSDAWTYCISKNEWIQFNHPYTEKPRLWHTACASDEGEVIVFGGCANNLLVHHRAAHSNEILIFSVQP

[2] = biological target: T1, KLHDC2^SBD; assay: Surface plasmon resonance binding to KLHDC2; design: KLHDC2^SBD (15-361) and its Avi-tagged counterpart were expressed in E. coli Rosetta2 cells; 6XHis-MBP (N, cleaved yes); made in house; host or cells: E. coli Rosetta2; settings: for SPR Response: FigS3d
Protocol: Surface plasmon resonance (SPR) was utilized to determine kinetic parameters and binding affinity of KLHDC2 substrates using a PioneerFE (Sartorius). Experiments were carried out in 20 mM Tris, 200 mM NaCl, 1 mM TCEP, 0.01% Brij35, and 1% DMSO at pH 7.4 as a running buffer with a 100 µL/min flow rate at 20 °C.
The 10xHis-KLHDC2 was immobilized onto a Ni-NTA-coated biosensor chip (HisCap). The chip surface was conditioned using 10 mM HCl, 50 mM NaOH, and 0.1% SDS (50 µL at 100 µL/min) twice, followed by a 100 mM Tris buffer wash (100 µL at 100 µL/min). The surface was then activated using an injection of 0.5 M EDTA (125 µL at 25 µL/min) followed by an injection of 5 mM NiCl2 (125 µL at 25 µL/min). […] Channel 2 was treated identically to channel 3 except for protein loading to be used as a reference channel. […] 100% of the loop was injected with a 300 s dissociation time. All samples were run in triplicate. Data was analyzed using Qdat software and fit to a simple 1-site model.
The SPR experiments were performed to determine the binding affinities (KD) of KLHDC2-SJ46411 and KLHDC2-SJ46418 complexes. All the experiments were performed using a Biacore 1S+ instrument. […] The running buffer consisted of 20 mM Tris pH 7.5, 200 mM NaCl, 1 mM TCEP, 0.01% Brij35, and 4% DMSO. […] In brief, before the immobilization, the sensor chip surface was conditioned by injecting a mixture of (3:1 v/v) 8 M guanidine hydrochloride and 1 M NaOH at a flow rate of 5 μL/min for 2 min for two times. Then, running buffer was injected at a 30 μl/min flow rate for 1 min 3 times. Next, the Biotin CAPture reagent was injected at a flow rate of 2 μl/min for 5 min. Then, biotinylated KLHDC2 was only injected onto the active channel (channel 2).
Sample preparation was carried out precisely the same as SJ46411. All experiments were performed using a multi-cycle analysis method with a 30 μl/min flow rate, 120 S association, and 240 s dissociation time. All data were reference subtracted and corrected for DMSO mismatch. The sensorgrams were analyzed using Biacore insight evaluation software, and KD was determined using the 1:1 steady-state affinity fitting. Finally, all the analyzed data was replotted using GraphPad Prizm 10 software.

[3] = biological target: T1, KLHDC2^SBD; assay: TR-FRET assay, competition with di-Gly degron peptide binding to KLHDC2^SBD; design: KLHDC2^SBD (15-361) and its Avi-tagged counterpart were expressed in E. coli Rosetta2 cells; 6XHis-MBP (N, cleaved yes); made in house; host or cells: E. coli Rosetta2
In short: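 Compounds displaced AlexaFluor488-RIC8B peptide (20 nM) from biotin-KLHDC2 SBD (50 nM) bound to Tb-streptavidin (2.5 nM). The 520/490 ratio (337 nm excitation) was normalized to buffer-only (100%) and curve-fitted.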

[4] = cell: ligand, syringe: KLHDC2^SBD

Kd ([1]; ITC Kd, as printed in Fig 2d/3b): 0.21 µM | Kd ([1]; ITC Kd, cell: ligand, syringe: KLHDC2^SBD): 0.216 ± 0.017 µM | Kd ([1]; Kd, ITC, syringe KLHDC2, cell compound, Rep1, Rep2): 0.205 µM and 0.229 µM | ITC -TΔS [1, 4]: -0.94 +/- 0.02 kcal/mol-1 | ITC stoichiometry of binding N [1, 4]: 0.9 | ITC ΔG [1, 4]: -8.82 +/- 0.04 kcal/mol-1 | ITC ΔH [1, 4]: -7.88 +/- 0.07 kcal/mol-1 | Raw SPR response ([2]; 0.0976562 uM, time -29 s): 0.0989 | Raw SPR response ([2]; 0.0976562 uM, time -29.1 s): 0.1275 | Raw SPR response ([2]; 0.0976562 uM, time -29.2 s): 0.1501 | Raw SPR response ([2]; 0.0976562 uM, time -29.3 s): 0.2497 | Raw SPR response ([2]; 0.195312 uM, time -29 s): 0.0952 | Raw SPR response ([2]; 0.195312 uM, time -29.1 s): 0.1196 | Raw SPR response ([2]; 0.195312 uM, time -29.2 s): 0.1572 | Raw SPR response ([2]; 0.195312 uM, time -29.3 s): 0.2514 | Raw SPR response ([2]; 0.390625 uM, time -29 s): 0.1406 | Raw SPR response ([2]; 0.390625 uM, time -29.1 s): 0.1812 | Raw SPR response ([2]; 0.390625 uM, time -29.2 s): 0.2616 | Raw SPR response ([2]; 0.390625 uM, time -29.3 s): 0.3693 | Raw SPR response ([2]; 0.78125 uM, time -29 s): 0.1584 | Raw SPR response ([2]; 0.78125 uM, time -29.1 s): 0.1946 | Raw SPR response ([2]; 0.78125 uM, time -29.2 s): 0.2669 | Raw SPR response ([2]; 0.78125 uM, time -29.3 s): 0.3893 | Raw SPR response ([2]; 1.5625 uM, time -29 s): 0.1505 | Raw SPR response ([2]; 1.5625 uM, time -29.1 s): 0.1878 | Raw SPR response ([2]; 1.5625 uM, time -29.2 s): 0.2713 | Raw SPR response ([2]; 1.5625 uM, time -29.3 s): 0.3827 | Raw SPR response ([2]; 2.34375 uM, time -29 s): 0.1726 | Raw SPR response ([2]; 2.34375 uM, time -29.1 s): 0.2365 | Raw SPR response ([2]; 2.34375 uM, time -29.2 s): 0.3258 | Raw SPR response ([2]; 2.34375 uM, time -29.3 s): 0.5246 | Raw SPR response ([2]; 3.125 uM, time -29 s): 0.1584 | Raw SPR response ([2]; 3.125 uM, time -29.1 s): 0.2098 | Raw SPR response ([2]; 3.125 uM, time -29.2 s): 0.2855 | Raw SPR response ([2]; 3.125 uM, time -29.3 s): 0.3398 | Raw SPR response ([2]; 4.6875 uM, time -29 s): 0.1506 | Raw SPR response ([2]; 4.6875 uM, time -29.1 s): 0.2195 | Raw SPR response ([2]; 4.6875 uM, time -29.2 s): 0.3095 | Raw SPR response ([2]; 4.6875 uM, time -29.3 s): 0.4038 | Raw SPR response ([2]; 12.5 uM, time -29 s): 0.1017 | Raw SPR response ([2]; 12.5 uM, time -29.1 s): 0.1107 | Raw SPR response ([2]; 12.5 uM, time -29.2 s): 0.1281 | Raw SPR response ([2]; 12.5 uM, time -29.3 s): 0.1417 | Raw SPR data, fit ([2]; 0.09765625 Fit, time -29 s): -0.002337 | Raw SPR data, fit ([2]; 0.09765625 Fit, time -29.1 s): -0.002345 | Raw SPR data, fit ([2]; 0.09765625 Fit, time -29.2 s): -0.002354 | Raw SPR data, fit ([2]; 0.09765625 Fit, time -29.3 s): -0.002362 | Raw SPR data, fit ([2]; 0.1953125Fit uM, time -29 s): 0.003849 | Raw SPR data, fit ([2]; 0.1953125Fit uM, time -29.1 s): 0.003863 | Raw SPR data, fit ([2]; 0.1953125Fit uM, time -29.2 s): 0.003876 | Raw SPR data, fit ([2]; 0.1953125Fit uM, time -29.3 s): 0.003889 | Raw SPR data, fit ([2]; 0.390625fit, time -29 s): 0.007264 | Raw SPR data, fit ([2]; 0.390625fit, time -29.1 s): 0.007289 | Raw SPR data, fit ([2]; 0.390625fit, time -29.2 s): 0.007315 | Raw SPR data, fit ([2]; 0.390625fit, time -29.3 s): 0.00734 | Raw SPR data, fit ([2]; 0.78125 fit, time -29 s): 0.01901 | Raw SPR data, fit ([2]; 0.78125 fit, time -29.1 s): 0.01908 | Raw SPR data, fit ([2]; 0.78125 fit, time -29.2 s): 0.01915 | Raw SPR data, fit ([2]; 0.78125 fit, time -29.3 s): 0.01921 | Raw SPR data, fit ([2]; 1.5625 fit, time -29 s): 0.01693 | Raw SPR data, fit ([2]; 1.5625 fit, time -29.1 s): 0.01699 | Raw SPR data, fit ([2]; 1.5625 fit, time -29.2 s): 0.01704 | Raw SPR data, fit ([2]; 1.5625 fit, time -29.3 s): 0.0171 | Raw SPR data, fit ([2]; 2.34375fit, time -29 s): 0.02325 | Raw SPR data, fit ([2]; 2.34375fit, time -29.1 s): 0.02333 | Raw SPR data, fit ([2]; 2.34375fit, time -29.2 s): 0.02341 | Raw SPR data, fit ([2]; 2.34375fit, time -29.3 s): 0.0235 | Raw SPR data, fit ([2]; 3.125 fit, time -29 s): 0.02052 | Raw SPR data, fit ([2]; 3.125 fit, time -29.1 s): 0.02059 | Raw SPR data, fit ([2]; 3.125 fit, time -29.2 s): 0.02066 | Raw SPR data, fit ([2]; 3.125 fit, time -29.3 s): 0.02074 | Raw SPR data, fit ([2]; 4.6875 fit, time -29 s): 0.02316 | Raw SPR data, fit ([2]; 4.6875 fit, time -29.1 s): 0.02324 | Raw SPR data, fit ([2]; 4.6875 fit, time -29.2 s): 0.02332 | Raw SPR data, fit ([2]; 4.6875 fit, time -29.3 s): 0.0234 | Raw SPR data, fit ([2]; 12.5 fit, time -29 s): 0.01922 | Raw SPR data, fit ([2]; 12.5 fit, time -29.1 s): 0.01929 | Raw SPR data, fit ([2]; 12.5 fit, time -29.2 s): 0.01935 | Raw SPR data, fit ([2]; 12.5 fit, time -29.3 s): 0.01942 | SPR Response ([2]; analyte 0.0977 μM): 0.48 RU | SPR Response ([2]; analyte 0.195 μM): 0.7348 RU | SPR Response ([2]; analyte 0.391 μM): 1.4491 RU | SPR Response ([2]; analyte 0.781 μM): 2.3401 RU | SPR Response ([2]; analyte 1.56 μM): 3.3797 RU | SPR Response ([2]; analyte 2.34 μM): 3.8756 RU | SPR Response ([2]; analyte 4.69 μM): 4.4852 RU | SPR Response ([2]; analyte 12.5 μM): 5.3052 RU | SPR Rmax ([2]; n=1): 5.70 +/- 0.20 | Kd ([2]; read-out: SPR Kd): 1 µM and 0.983 µM | % Inhibition, normalized TR-FRET dose response ([3]; Log Concentration 2.39794): 13.1742% and 22.1732% and 17.7572% | % Inhibition, normalized TR-FRET dose response ([3]; Log Concentration 2.64098): 24.253% and 29.1375% and 24.8323% | % Inhibition, normalized TR-FRET dose response ([3]; Log Concentration 3.273): 57.5653% and 59.1955% and 57.0453% | % Inhibition, normalized TR-FRET dose response ([3]; Log Concentration 3.87506): 85.4899% and 86.6902% and 84.0459% | % Inhibition, normalized TR-FRET dose response ([3]; Log Concentration 4.39794): 85.0979% and 85.1063% and 81.8885% | IC50 ([3]; inhibition of KLHDC2^SBD binding to a di-Gly degron peptide, read-out: TR-FRET IC50): 1.1 µM
Structure (SMILES): COCCOc1cccc2ccc(-c3nc(CC(=O)NCC(=O)O)cs3)cc12 [SJ46418]

— PMC11470957, “Principles of paralog-specific targeted protein degradation engaging the C-degron E3 KLHDC2” (Nature Communications, 2024)
